Reference: PubChem BioAssay (NCI)
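Five concentrations, 48 hours, 96-well plates. At the TGI there is no net growth.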

What was measured:
Assay in all cases: NCI tumour cell line growth inhibition, 48 h
A498 renal = test system: A498 renal
A549 NSCLC = test system: A549 NSCLC
CAKI-1 renal = test system: CAKI-1 renal
CCRF-CEM leukemia = test system: CCRF-CEM leukemia
COLO 205 colon = test system: COLO 205 colon
DLD-1 colon = test system: DLD-1 colon
DMS 114 small cell lung = test system: DMS 114 small cell lung
DMS 273 small cell lung = test system: DMS 273 small cell lung
EKVX NSCLC = test system: EKVX NSCLC
HCC-2998 colon = test system: HCC-2998 colon
HCT-116 colon = test system: HCT-116 colon
HCT-15 colon = test system: HCT-15 colon
HL-60(TB) leukemia = test system: HL-60(TB) leukemia
HOP-18 NSCLC = test system: HOP-18 NSCLC
HOP-62 NSCLC = test system: HOP-62 NSCLC
HOP-92 NSCLC = test system: HOP-92 NSCLC
HT29 colon = test system: HT29 colon
IGROV1 ovarian = test system: IGROV1 ovarian
K-562 leukemia = test system: K-562 leukemia
KM12 colon = test system: KM12 colon
KM20L2 colon = test system: KM20L2 colon
LOX IMVI melanoma = test system: LOX IMVI melanoma
M19-MEL melanoma = test system: M19-MEL melanoma
MALME-3M melanoma = test system: MALME-3M melanoma
MCF7 breast = test system: MCF7 breast
MOLT-4 leukemia = test system: MOLT-4 leukemia
NCI-H226 lung = test system: NCI-H226 lung
NCI-H23 lung = test system: NCI-H23 lung
NCI-H460 lung = test system: NCI-H460 lung
NCI-H522 lung = test system: NCI-H522 lung
NCI/ADR-RES ovarian = test system: NCI/ADR-RES ovarian
OVCAR-3 ovarian = test system: OVCAR-3 ovarian
OVCAR-4 ovarian = test system: OVCAR-4 ovarian
OVCAR-5 ovarian = test system: OVCAR-5 ovarian
OVCAR-8 ovarian = test system: OVCAR-8 ovarian
P388 leukemia = test system: P388 leukemia
P388/ADR leukemia = test system: P388/ADR leukemia
RPMI-8226 leukemia = test system: RPMI-8226 leukemia
RXF 393 renal = test system: RXF 393 renal
SF-268 CNS = test system: SF-268 CNS
SF-295 CNS = test system: SF-295 CNS
SF-539 CNS = test system: SF-539 CNS
SK-MEL-2 melanoma = test system: SK-MEL-2 melanoma
SK-MEL-28 melanoma = test system: SK-MEL-28 melanoma
SK-MEL-5 melanoma = test system: SK-MEL-5 melanoma
SK-OV-3 ovarian = test system: SK-OV-3 ovarian
SN12C renal = test system: SN12C renal
SN12K1 renal = test system: SN12K1 renal
SNB-19 CNS = test system: SNB-19 CNS
SNB-75 CNS = test system: SNB-75 CNS
SNB-78 CNS = test system: SNB-78 CNS
SW-620 colon = test system: SW-620 colon
U251 CNS = test system: U251 CNS
UACC-257 melanoma = test system: UACC-257 melanoma
UACC-62 melanoma = test system: UACC-62 melanoma
UO-31 renal = test system: UO-31 renal
XF 498 CNS = test system: XF 498 CNS

Cc1c2cnccc2c(C)c2c1c1ccccc1n2CCCCCCCl
TGI (A498 renal): > 50 µM
TGI (A549 NSCLC): > 50 µM
TGI (CAKI-1 renal): > 50 µM
TGI (CCRF-CEM leukemia): > 50 µM
TGI (COLO 205 colon): > 34.1 µM
TGI (DLD-1 colon): > 50 µM
TGI (DMS 114 small cell lung): > 50 µM
TGI (DMS 273 small cell lung): > 50 µM
TGI (EKVX NSCLC): > 50 µM
TGI (HCC-2998 colon): > 50 µM
TGI (HCT-116 colon): > 50 µM
TGI (HCT-15 colon): > 50 µM
TGI (HL-60(TB) leukemia): 40.6 µM
TGI (HOP-18 NSCLC): > 7.93 µM
TGI (HOP-62 NSCLC): > 50 µM
TGI (HOP-92 NSCLC): > 50 µM
TGI (HT29 colon): > 50 µM
TGI (IGROV1 ovarian): > 50 µM
TGI (K-562 leukemia): > 50 µM
TGI (KM12 colon): > 50 µM
TGI (KM20L2 colon): > 50 µM
TGI (LOX IMVI melanoma): > 50 µM
TGI (M19-MEL melanoma): > 50 µM
TGI (MALME-3M melanoma): > 50 µM
TGI (MCF7 breast): > 50 µM
TGI (MOLT-4 leukemia): > 50 µM
TGI (NCI-H226 lung): > 46.7 µM
TGI (NCI-H23 lung): > 50 µM
TGI (NCI-H460 lung): > 50 µM
TGI (NCI-H522 lung): > 50 µM
TGI (NCI/ADR-RES ovarian): > 50 µM
TGI (OVCAR-3 ovarian): > 50 µM
TGI (OVCAR-4 ovarian): > 29.3 µM
TGI (OVCAR-5 ovarian): > 50 µM
TGI (OVCAR-8 ovarian): > 50 µM
TGI (P388 leukemia): 32.6 µM
TGI (P388/ADR leukemia): > 50 µM
TGI (RPMI-8226 leukemia): > 48.9 µM
TGI (RXF 393 renal): > 50 µM
TGI (SF-268 CNS): > 50 µM
TGI (SF-295 CNS): > 50 µM
TGI (SF-539 CNS): > 50 µM
TGI (SK-MEL-2 melanoma): > 50 µM
TGI (SK-MEL-28 melanoma): > 50 µM
TGI (SK-MEL-5 melanoma): > 50 µM
TGI (SK-OV-3 ovarian): > 50 µM
TGI (SN12C renal): > 50 µM
TGI (SN12K1 renal): > 50 µM
TGI (SNB-19 CNS): > 50 µM
TGI (SNB-75 CNS): > 31.6 µM
TGI (SNB-78 CNS): 49.8 µM
TGI (SW-620 colon): > 50 µM
TGI (U251 CNS): > 50 µM
TGI (UACC-257 melanoma): > 50 µM
TGI (UACC-62 melanoma): > 50 µM
TGI (UO-31 renal): > 50 µM
TGI (XF 498 CNS): > 50 µM
